Measurements from patent publication US8889370B2, “Method of determining inhibitors of coagulation” (Siemens Healthcare Diagnostics Products GmbH, priority 2010, dated 2014).
Like-named read-outs stand apart in the source and are kept apart here.

Biological target: T1, factor Xa (Homo sapiens, UniProt P00742)
T1 construct: an F Xa reagent consisting of a lyophilized plasma fraction containing factor Xa; purchased Siemens Healthcare Diagnostics (Berichrom heparin assay, F Xa reagent); host or cells: plasma fraction
T1 sequence (P00742 235-488 limits assumed): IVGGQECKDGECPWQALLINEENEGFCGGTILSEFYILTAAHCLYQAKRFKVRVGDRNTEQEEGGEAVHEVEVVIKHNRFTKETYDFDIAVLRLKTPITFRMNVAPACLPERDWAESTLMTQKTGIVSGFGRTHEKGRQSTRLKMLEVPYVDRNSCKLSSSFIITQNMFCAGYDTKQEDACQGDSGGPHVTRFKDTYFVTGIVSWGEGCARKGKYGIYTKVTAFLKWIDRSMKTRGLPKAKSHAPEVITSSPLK
T1 sequence (P00742 41-179 partner limits assumed): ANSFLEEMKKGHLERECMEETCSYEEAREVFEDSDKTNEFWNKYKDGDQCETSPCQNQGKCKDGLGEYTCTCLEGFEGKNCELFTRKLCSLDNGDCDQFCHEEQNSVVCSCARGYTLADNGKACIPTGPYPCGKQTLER
Experiment: Determination of the F Xa binding constant (Ki) of peptide aldehyde ligands, chromogenic assay with Berichrom heparin assay reagents, Dixon plot
Assay type: biochemical
Method: The kinetic data of the peptide aldehyde ligands were determined in chromogenic assay formats by measuring the rate of hydrolysis of chromogenic peptide substrates which compete with the peptide aldehyde ligands for binding to the active site of the particular enzyme, at various substrate concentrations and peptide aldehyde-ligand concentrations. The binding constant (Ki) was determined by a known method (Dixon, M., 1953, Biochem J, 55, 170-171).
The F Xa binding constant was determined using the reagents of the Berichrom® heparin assay from Siemens Healthcare Diagnostics. The Berichrom® heparin assay consists of: an F Xa reagent consisting of a lyophilized plasma fraction containing factor Xa, and additives such as Tris, NaCl, EDTA and preservatives, a chromogenic substrate reagent (Z-D-Leu-Gly-Arg-ANBA-methyl-amide), a dilution reagent for reconstitution, and a dextran sulfate reagent consisting of lyophilized dextran sulfate.
After reconstitution in 10 ml of dilution reagent, the dextran sulfate concentration is 0.02 g/l. The F Xa reagent is reconstituted with the reconstituted dextran sulfate reagent. The substrate reagent, after constitution with 2 ml of deionized water, contains 4 mmol/l Z-D-Leu-Gly-Arg-ANBA-methyl-amide. Dilutions of the substrate reagent were prepared with deionized water. The peptide aldehyde ligands prepared according to example 1 were dissolved in water and used as sample. The assays were carried out automatically in a BCS® XP coagulation analyzer (Siemens Healthcare Diagnostics, Marburg, Germany).
A reaction mix was mixed together as follows:
15 μl of sample (peptide aldehyde ligand B-r-G-R—H or B-f-P—R—H), […]
30 μl of substrate reagent (Z-D-Leu-Gly-Arg-ANBA-methyl-amide).
The reaction rate in mE/min was determined on the basis of the increase in optical density of the reaction mix at a wavelength of 405 nm. For this, the optical density of the reaction mixes was determined in a time interval from 10 to 70 seconds.

N=C(N)NCCC[C@@H](C=O)NC(=O)[C@@H]1CCCN1C(=O)[C@@H](Cc1ccccc1)NC(=O)CCC(=O)NCCCOCCOCCOCCCNC(=O)CCCC[C@@H]1SC[C@@H]2NC(=O)N[C@@H]21 [B-f-P-R-H, biotinyl-Ttds-D-Phe-Pro-Arg-H]
1/Reaction rate (CB-f-P-R-H 0.01019 μM, Csubstrate = 0.5 mM): 5.617 min/E
1/Reaction rate (CB-f-P-R-H 0.01019 μM, Csubstrate = 2 mM): 1.457 min/E
1/Reaction rate (CB-f-P-R-H 0.01019 μM, Csubstrate = 4 mM): 0.8217 min/E
1/Reaction rate (CB-f-P-R-H 0.02038 μM, Csubstrate = 0.5 mM): 5.565 min/E
1/Reaction rate (CB-f-P-R-H 0.02038 μM, Csubstrate = 2 mM): 1.457 min/E
1/Reaction rate (CB-f-P-R-H 0.02038 μM, Csubstrate = 4 mM): 0.8192 min/E
1/Reaction rate (CB-f-P-R-H 0.04076 μM, Csubstrate = 0.5 mM): 5.569 min/E
1/Reaction rate (CB-f-P-R-H 0.04076 μM, Csubstrate = 2 mM): 1.454 min/E
1/Reaction rate (CB-f-P-R-H 0.04076 μM, Csubstrate = 4 mM): 0.8174 min/E
1/Reaction rate (CB-f-P-R-H 0.08152 μM, Csubstrate = 0.5 mM): 5.572 min/E
1/Reaction rate (CB-f-P-R-H 0.08152 μM, Csubstrate = 2 mM): 1.467 min/E
1/Reaction rate (CB-f-P-R-H 0.08152 μM, Csubstrate = 4 mM): 0.8218 min/E
1/Reaction rate (CB-f-P-R-H 0.10190 μM, Csubstrate = 0.5 mM): 5.619 min/E
1/Reaction rate (CB-f-P-R-H 0.10190 μM, Csubstrate = 2 mM): 1.463 min/E
1/Reaction rate (CB-f-P-R-H 0.10190 μM, Csubstrate = 4 mM): 0.8156 min/E
1/Reaction rate (CB-f-P-R-H 0.16304 μM, Csubstrate = 0.5 mM): 5.675 min/E
1/Reaction rate (CB-f-P-R-H 0.16304 μM, Csubstrate = 2 mM): 1.485 min/E
1/Reaction rate (CB-f-P-R-H 0.16304 μM, Csubstrate = 4 mM): 0.8333 min/E
1/Reaction rate (CB-f-P-R-H 0.20380 μM, Csubstrate = 0.5 mM): 5.619 min/E
1/Reaction rate (CB-f-P-R-H 0.20380 μM, Csubstrate = 2 mM): 1.473 min/E
1/Reaction rate (CB-f-P-R-H 0.20380 μM, Csubstrate = 4 mM): 0.8238 min/E
1/Reaction rate (CB-f-P-R-H 0.32609 μM, Csubstrate = 0.5 mM): 5.69 min/E
1/Reaction rate (CB-f-P-R-H 0.32609 μM, Csubstrate = 2 mM): 1.486 min/E
1/Reaction rate (CB-f-P-R-H 0.32609 μM, Csubstrate = 4 mM): 0.832 min/E
1/Reaction rate (CB-f-P-R-H 0.40761 μM, Csubstrate = 0.5 mM): 5.694 min/E
1/Reaction rate (CB-f-P-R-H 0.40761 μM, Csubstrate = 2 mM): 1.489 min/E
1/Reaction rate (CB-f-P-R-H 0.40761 μM, Csubstrate = 4 mM): 0.8338 min/E
1/Reaction rate (CB-f-P-R-H 0.65217 μM, Csubstrate = 0.5 mM): 5.785 min/E
1/Reaction rate (CB-f-P-R-H 0.65217 μM, Csubstrate = 2 mM): 1.51 min/E
1/Reaction rate (CB-f-P-R-H 0.65217 μM, Csubstrate = 4 mM): 0.8514 min/E
1/Reaction rate (CB-f-P-R-H 0.81522 μM, Csubstrate = 0.5 mM): 5.868 min/E
1/Reaction rate (CB-f-P-R-H 0.81522 μM, Csubstrate = 2 mM): 1.521 min/E
1/Reaction rate (CB-f-P-R-H 0.81522 μM, Csubstrate = 4 mM): 0.8494 min/E
1/Reaction rate (CB-f-P-R-H 1.30435 μM, Csubstrate = 0.5 mM): 5.959 min/E
1/Reaction rate (CB-f-P-R-H 1.30435 μM, Csubstrate = 2 mM): 1.562 min/E
1/Reaction rate (CB-f-P-R-H 1.30435 μM, Csubstrate = 4 mM): 0.8735 min/E
1/Reaction rate (CB-f-P-R-H 1.63043 μM, Csubstrate = 0.5 mM): 6.263 min/E
1/Reaction rate (CB-f-P-R-H 1.63043 μM, Csubstrate = 2 mM): 1.591 min/E
1/Reaction rate (CB-f-P-R-H 1.63043 μM, Csubstrate = 4 mM): 0.9021 min/E
1/Reaction rate (CB-f-P-R-H 2.60870 μM, Csubstrate = 0.5 mM): 6.441 min/E
1/Reaction rate (CB-f-P-R-H 2.60870 μM, Csubstrate = 2 mM): 1.672 min/E
1/Reaction rate (CB-f-P-R-H 2.60870 μM, Csubstrate = 4 mM): 0.9317 min/E
1/Reaction rate (CB-f-P-R-H 3.26087 μM, Csubstrate = 0.5 mM): 6.663 min/E
1/Reaction rate (CB-f-P-R-H 3.26087 μM, Csubstrate = 2 mM): 1.715 min/E
1/Reaction rate (CB-f-P-R-H 3.26087 μM, Csubstrate = 4 mM): 0.9448 min/E
1/Reaction rate (CB-f-P-R-H 4.89130 μM, Csubstrate = 0.5 mM): 7.084 min/E
1/Reaction rate (CB-f-P-R-H 4.89130 μM, Csubstrate = 2 mM): 1.84 min/E
1/Reaction rate (CB-f-P-R-H 4.89130 μM, Csubstrate = 4 mM): 1.026 min/E
1/Reaction rate (CB-f-P-R-H 6.52174 μM, Csubstrate = 0.5 mM): 7.613 min/E
1/Reaction rate (CB-f-P-R-H 6.52174 μM, Csubstrate = 2 mM): 1.979 min/E
1/Reaction rate (CB-f-P-R-H 6.52174 μM, Csubstrate = 4 mM): 1.106 min/E
1/Reaction rate (CB-f-P-R-H 8.15217 μM, Csubstrate = 0.5 mM): 8.377 min/E
1/Reaction rate (CB-f-P-R-H 8.15217 μM, Csubstrate = 2 mM): 2.149 min/E
1/Reaction rate (CB-f-P-R-H 8.15217 μM, Csubstrate = 4 mM): 1.173 min/E
1/Reaction rate (CB-f-P-R-H 13.04348 μM, Csubstrate = 0.5 mM): 9.739 min/E
1/Reaction rate (CB-f-P-R-H 13.04348 μM, Csubstrate = 2 mM): 2.499 min/E
1/Reaction rate (CB-f-P-R-H 13.04348 μM, Csubstrate = 4 mM): 1.359 min/E
Intersect of regression curve 1/reaction rate vs ligand concentration (Csubstrate 0.5 mM): 5.5934 min/E
Slope of regression curve 1/reaction rate vs ligand concentration (Csubstrate 0.5 mM): 0.3216 min/E μM
Intersect of regression curve 1/reaction rate vs ligand concentration (Csubstrate 2 mM): 1.4588 min/E
Slope of regression curve 1/reaction rate vs ligand concentration (Csubstrate 2 mM): 0.0806 min/E μM
Intersect of regression curve 1/reaction rate vs ligand concentration (Csubstrate 4 mM): 0.8202 min/E
Slope of regression curve 1/reaction rate vs ligand concentration (Csubstrate 4 mM): 0.0421 min/E μM
Ki (average of three Ki values, read-out: KiM average F Xa binding constant): 16.9 µM
Ki (intersection of regression curves Csubstrate 2 and 0.5 mM, read-out: Ki2&3 F Xa binding constant): 17.2 µM
Ki (intersection of regression curves Csubstrate 4 and 0.5 mM, read-out: Ki1&3 F Xa binding constant): 17.1 µM
Ki (intersection of regression curves Csubstrate 4 and 2 mM, read-out: Ki1&2 F Xa binding constant): 16.6 µM
binding of the peptide aldehyde with F Xa (reversible or irreversible) (intersections of regression curves not on the x axis): reversible
